How the values were obtained:
Assay in all cases: relative viability (nuclei count vs DMSO), 5 days (fraction); higher = more cells survive
Quizartinib + Vorinostat = compound: CC(C)(C)c1cc(NC(=O)Nc2ccc(-c3cn4c(n3)sc3cc(OCCN5CCOCC5)ccc34)cc2)no1 [Quizartinib] + O=C(CCCCCCC(=O)Nc1ccccc1)NO [Vorinostat] (partner 1 µM)
Summary of the method: (§1)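 Values are medians from duplicate plates. Each reflects relative viability, defined as the nuclei count of treated wells over that of vehicle wells. Lung cancer cell lines in 1536-well plates were pin-tool dosed one day after seeding with one drug alone or with a fixed anchor-drug dose plus five library-drug doses (not always all listed) in √10 steps, then fixed, stained and imaged at 4× after 5 days.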

YM155 + Luminespib = compound: COCC[n+]1c2c(n(Cc3cnccn3)c1C)C(=O)c1ccccc1C2=O [YM155] + CCNC(=O)c1noc(-c2cc(C(C)C)c(O)cc2O)c1-c1ccc(CN2CCOCC2)cc1 [Luminespib] (partner 0.01 µM)
Summary of the method: as §1

YM155 + Tozasertib = compound: COCC[n+]1c2c(n(Cc3cnccn3)c1C)C(=O)c1ccccc1C2=O [YM155] + Cc1cc(Nc2cc(N3CCN(C)CC3)nc(Sc3ccc(NC(=O)C4CC4)cc3)n2)n[nH]1 [Tozasertib] (partner 0.1 µM)
Summary of the method: as §1

YM155 + Olaparib = compound: COCC[n+]1c2c(n(Cc3cnccn3)c1C)C(=O)c1ccccc1C2=O [YM155] + O=C(c1cc(Cc2n[nH]c(=O)c3ccccc23)ccc1F)N1CCN(C(=O)C2CC2)CC1 [Olaparib] (partner 8 µM)
Summary of the method: as §1

Row | Cell Line | relative viability (Quizartinib + Vorinostat; first compound 0.001 µM) | relative viability (Quizartinib + Vorinostat; first compound 0.003162 µM) | relative viability (Quizartinib + Vorinostat; first compound 0.01 µM) | relative viability (Quizartinib + Vorinostat; first compound 0.03162 µM) | relative viability (Quizartinib + Vorinostat; first compound 0.1 µM) | relative viability (YM155 + Luminespib; first compound 0.002 µM) | relative viability (YM155 + Luminespib; first compound 0.006325 µM) | relative viability (YM155 + Luminespib; first compound 0.02 µM) | relative viability (YM155 + Luminespib; first compound 0.06325 µM) | relative viability (YM155 + Tozasertib; first compound 0.002 µM) | relative viability (YM155 + Tozasertib; first compound 0.006325 µM) | relative viability (YM155 + Tozasertib; first compound 0.02 µM) | relative viability (YM155 + Tozasertib; first compound 0.06325 µM) | relative viability (YM155 + Olaparib; first compound 0.002 µM) | relative viability (YM155 + Olaparib; first compound 0.006325 µM) | relative viability (YM155 + Olaparib; first compound 0.02 µM) | relative viability (YM155 + Olaparib; first compound 0.06325 µM)
1 | NCI-H838 | 0.68 | 0.662 | 0.794 | 0.707 | 0.683 | 0.254 | 0.429 | 0.234 | 0.158 | 0.252 | 0.275 | 0.252 | 0.19 | 0.711 | 0.787 | 0.761 | 0.416
2 | NCI-H1437 | 0.606 | 0.81 | 0.78 | 0.758 | 0.591 | 1.1 | 1.1 | 0.976 | 0.76 | 0.421 | 0.416 | 0.455 | 0.276 | 0.618 | 0.596 | 0.599 | 0.387
3 | NCI-H522 | 0.803 | 0.849 | 0.818 | 0.874 | 0.834 | 1.21 | 1.1 | 1.04 | 1.28 | 0.522 | 0.557 | 0.599 | 0.582 | 0.727 | 0.646 | 0.594 | 0.612
4 | LXF-289 | 0.645 | 0.752 | 0.782 | 0.726 | 0.738 | 0.651 | 0.683 | 0.675 | 0.504 | 0.186 | 0.214 | 0.205 | 0.183 | 0.984 | 1.04 | 1.04 | 0.947
5 | LU99A | 0.373 | 0.51 | 0.449 | 0.481 | 0.502 | 0.233 | 0.263 | 0.275 | 0.219 | 0.26 | 0.255 | 0.318 | 0.265 | 0.269 | 0.236 | 0.255 | 0.262
6 | HOP-62 | 0.456 | 0.429 | 0.577 | 0.566 | 0.619 | 0.918 | 0.907 | 0.938 | 0.906 | 0.384 | 0.383 | 0.391 | 0.354 | 0.668 | 0.35 | 0.419 | 0.29
7 | NCI-H1915 | 0.55 | 0.442 | 0.49 | 0.551 | 0.562 | 0.803 | 0.809 | 0.829 | 0.711 | 0.393 | 0.458 | 0.444 | 0.36 | 0.26 | 0.259 | 0.278 | 0.254
8 | NCI-H2342 | 0.804 | 0.717 | 0.669 | 0.69 | 0.617 | 0.721 | 0.788 | 0.738 | 0.746 | 0.477 | 0.566 | 0.541 | 0.479 | 0.356 | 0.386 | 0.473 | 0.445
9 | SW 1573 | 0.556 | 0.715 | 0.684 |  | 1.27 | 0.246 | 0.179 | 0.17 | 0.0748 | 0.132 | 0.155 | 0.0846 | 0.0818 | 0.5 | 0.409 | 0.21 | 0.0835
10 | HCC-44 | 1.23 | 1.09 | 1.13 | 1.21 | 1.11 | 1.04 | 1.05 | 0.92 | 0.219 | 1.01 | 1.01 | 0.888 | 0.273 | 0.969 | 1.03 | 0.992 | 1.04
11 | HARA | 0.468 | 0.47 | 0.553 | 0.677 | 0.426 | 0.683 | 0.906 | 0.95 | 0.686 | 0.0954 | 0.122 | 0.13 | 0.121 |  | 0.815 | 0.76 | 0.935
12 | SK-MES-1 | 1.01 | 1 | 1.2 | 0.586 | 1.03 | 0.437 | 0.359 | 0.234 | 0.169 | 0.853 | 0.866 | 0.483 | 0.267 | 0.707 | 0.574 | 0.258 | 0.189
13 | ABC-1 |  | 1.24 | 0.963 | 0.793 | 1.65 | 0.439 | 0.386 | 0.169 | 0.256 | 0.163 | 0.164 | 0.137 | 0.151 |  | 0.51 | 0.28 | 0.261
14 | NCI-H358 | 0.733 | 0.572 | 0.803 |  | 0.815 | 0.222 | 0.374 | 0.352 | 0.311 | 0.111 | 0.126 | 0.103 | 0.0626 | 0.574 | 0.625 | 0.529 | 0.156
15 | HCC-15 | 0.747 | 0.799 | 0.882 | 0.823 | 0.832 | 0.361 | 0.369 | 0.311 | 0.161 | 0.4 | 0.369 | 0.472 | 0.251 | 0.668 | 0.763 | 0.696 | 0.666
16 | NCI-H1650 | 0.499 | 0.581 | 0.635 |  | 0.445 | 0.181 | 0.197 | 0.175 | 0.228 | 0.33 | 0.468 | 0.485 | 0.266 | 0.781 | 0.699 | 0.491 | 0.194

From the supplement of paper PMC10307832
